Measured values reported in US20260285850A1, “SUBSTITUTED OXAZOLIDINONES AND IMIDAZOLINONES AS HERBICIDES” (FMC CORPORATION, priority 2023, published 2026).

Legend:
Format in all cases: in vivo
[1] = tested on: barnyardgrass (Echinochloa crusgalli); test: Test B flooded paddy test, visual plant response rating 0-100; details: 250 g ai/ha, Flood, applied to paddy water, evaluated after 13 days
In short: (§1)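 Visual evaluation after 13 days. Water-applied treatment, 3 cm flood depth held constant, plants at 2-leaf stage at treatment.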

[2] = tested on: sedge, umbrella (small-flower umbrella sedge, Cyperus difformis); test: as above; details: 250 g ai/ha, Flood, applied to paddy water, evaluated after 13 days
In short: as §1

rice (Oryza sativa) = test: as above; details: 250 g ai/ha, Flood, applied to paddy water, evaluated after 13 days
In short: as §1

[3] = tested on: ducksalad (Heteranthera limosa); test: as above; details: 250 g ai/ha, Flood, applied to paddy water, evaluated after 13 days
In short: as §1

[4] = tested on: blackgrass (Alopecurus myosuroides); test: Test A postemergence application, visual injury rating 0-100; details: 10 days
In short: (§2)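 Seeds sown in loam-sand blend got a preemergence directed soil spray, or emerged plants (2-10 cm, one- to two-leaf) got a postemergence spray, of compound in non-phytotoxic solvent with surfactant. After 10 days in greenhouse, injury rated visually versus untreated controls on a 0 (no effect) to 100 (complete control) scale.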

[5] = tested on: wheat (Triticum aestivum); test: as above; details: 10 days
In short: as §2

[6] = tested on: palmer (palmer amaranth, palmer pigweed, Amaranthus palmeri); test: as above; details: 10 days
In short: as §2

kochia (Bassia scoparia) [7] = test: as above; details: 10 days
In short: as §2

[8] = tested on: barnyardgrass (Echinochloa crus-galli); test: as above; details: 10 days
In short: as §2

[9] = tested on: ragweed (common ragweed, Ambrosia artemisiifolia); test: as above; details: 10 days
In short: as §2

[10] = tested on: green foxtail (Setaria viridis); test: as above; details: 10 days
In short: as §2

[11] = tested on: ryegrass, Italian (italian ryegrass, Lolium multiflorum); test: as above; details: 10 days
In short: as §2

[12] = tested on: horseweed (Erigeron canadensis); test: as above; details: 10 days
In short: as §2

corn (Zea mays) [13] = test: as above; details: 10 days
In short: as §2

[14] = tested on: oat, wild (wild oat, Avena fatua); test: as above; details: 10 days
In short: as §2

soybean (Glycine max) [15] = test: as above; details: 10 days
In short: as §2

[16] = tested on: blackgrass (Alopecurus myosuroides); test: Test A preemergence soil spray, visual injury rating 0-100; details: 10 days, 0 = no effect, 100 = complete control
In short: as §2

[17] = tested on: wheat (Triticum aestivum); test: as above; details: 10 days, 0 = no effect, 100 = complete control
In short: as §2

[18] = tested on: palmer (palmer amaranth, palmer pigweed, Amaranthus palmeri); test: as above; details: 10 days, 0 = no effect, 100 = complete control
In short: as §2

kochia (Bassia scoparia) [19] = test: as above; details: 10 days, 0 = no effect, 100 = complete control
In short: as §2

[20] = tested on: barnyardgrass (Echinochloa crus-galli); test: as above; details: 10 days, 0 = no effect, 100 = complete control
In short: as §2

[21] = tested on: ragweed (common ragweed, Ambrosia artemisiifolia); test: as above; details: 10 days, 0 = no effect, 100 = complete control
In short: as §2

[22] = tested on: green foxtail (Setaria viridis); test: as above; details: 10 days, 0 = no effect, 100 = complete control
In short: as §2

[23] = tested on: ryegrass, Italian (italian ryegrass, Lolium multiflorum); test: as above; details: 10 days, 0 = no effect, 100 = complete control
In short: as §2

corn (Zea mays) [24] = test: as above; details: 10 days, 0 = no effect, 100 = complete control
In short: as §2

[25] = tested on: oat, wild (wild oat, Avena fatua); test: as above; details: 10 days, 0 = no effect, 100 = complete control
In short: as §2

soybean (Glycine max) [26] = test: as above; details: 10 days, 0 = no effect, 100 = complete control
In short: as §2

[27] = 31 g ai/ha, postemergence, 0 = no effect, 100 = complete control
[28] = Postemergence, 125 g ai/ha, 0 is no effect, 100 is complete control

COC(=O)C1=CC[C@H](NC(=O)C2(C)CN(c3cc(F)cc(F)c3)C(=O)O2)C1 (mixture of isomers) [Compound 37, Methyl (4S)-4-[[[3-(3,5-difluorophenyl)-5-methyl-2-oxo-5-oxazolidinyl]carbonyl]amino]-1-cyclopentene-1-carboxylate]
10: Horseweed plant response rating (0-100) [12, 27] | Amaranth, Palmer plant response rating (0-100) ([18]; 31 g ai/ha) | Corn plant response rating (0-100) (corn (Zea mays) [24]; 31 g ai/ha) | Soybean plant response rating (0-100) (soybean (Glycine max) [26]; 31 g ai/ha)
65: Plant response rating, Rice (0 to 100 scale, 0 is no effect and 100 is complete control) (rice (Oryza sativa))
75: Plant response rating, Barnyardgrass (0 to 100 scale, 0 is no effect and 100 is complete control) [1]
30: Barnyardgrass plant response rating (0-100) ([20]; 31 g ai/ha)
20: Ragweed plant response rating (0-100) [9, 27] | Blackgrass plant response rating (0 to 100 scale) ([16]; 125 g ai/ha) | Kochia plant response rating (0 to 100 scale) (kochia (Bassia scoparia) [19]; 125 g ai/ha) | Oat, Wild plant response rating (0-100) ([25]; 31 g ai/ha)
60: Ragweed plant response rating (0-100) ([21]; 31 g ai/ha) | Oat, Wild plant response rating (0 to 100 scale) ([25]; 125 g ai/ha)
70: Amaranth, Palmer plant response rating (0-100) [6, 27] | Horseweed plant response rating (0 to 100 scale) [12, 28] | Soybean plant response rating (0-100) (soybean (Glycine max) [15]; [27]) | Ryegrass, Italian plant response rating (0-100) ([23]; 31 g ai/ha) | Soybean plant response rating (0 to 100 scale) (soybean (Glycine max) [26]; 125 g ai/ha)
0: Blackgrass plant response rating (0-100) ([16]; 31 g ai/ha) | Kochia plant response rating (0-100) (kochia (Bassia scoparia) [19]; 31 g ai/ha) | Ragweed plant response rating (0 to 100 scale) ([21]; 125 g ai/ha) | Foxtail, Green plant response rating (0-100) ([22]; 31 g ai/ha)
50: Ragweed plant response rating (0 to 100 scale) [9, 28]
40: Wheat plant response rating (0-100) ([17]; 31 g ai/ha)
95: Plant response rating, Ducksalad (0 to 100 scale, 0 is no effect and 100 is complete control) [3]
90: Blackgrass plant response rating (0 to 100 scale) [4, 28] | Wheat plant response rating (0-100) [5, 27] | Wheat plant response rating (0 to 100 scale) [5, 28] | Amaranth, Palmer / Pigweed, Palmer plant response rating (0 to 100 scale) [6, 28] | Foxtail, Green plant response rating (0-100) [10, 27] | Foxtail, Green plant response rating (0 to 100 scale) [10, 28] | Ryegrass, Italian plant response rating (0 to 100 scale) [11, 28] | Oat, Wild plant response rating (0-100) [14, 27] | Oat, Wild plant response rating (0 to 100 scale) [14, 28] | Barnyardgrass plant response rating (0 to 100 scale) ([20]; 125 g ai/ha) | Foxtail, Green plant response rating (0 to 100 scale) ([22]; 125 g ai/ha) | Ryegrass, Italian plant response rating (0 to 100 scale) ([23]; 125 g ai/ha)
80: Blackgrass plant response rating (0-100) [4, 27] | Kochia plant response rating (0-100) (kochia (Bassia scoparia) [7]; [27]) | Kochia plant response rating (0 to 100 scale) (kochia (Bassia scoparia) [7]; [28]) | Ryegrass, Italian plant response rating (0-100) [11, 27] | Soybean plant response rating (0 to 100 scale) (soybean (Glycine max) [15]; [28]) | Wheat plant response rating (0 to 100 scale) ([17]; 125 g ai/ha) | Amaranth, Palmer plant response rating (0 to 100 scale) ([18]; 125 g ai/ha) | Corn plant response rating (0 to 100 scale) (corn (Zea mays) [24]; 125 g ai/ha)
100: Plant response rating, Sedge, Umbrella (0 to 100 scale, 0 is no effect and 100 is complete control) [2] | Barnyardgrass plant response rating (0-100) [8, 27] | Barnyardgrass plant response rating (0 to 100 scale) [8, 28] | Corn plant response rating (0-100) (corn (Zea mays) [13]; [27]) | Corn plant response rating (0 to 100 scale) (corn (Zea mays) [13]; [28])
